From PMC5678437, “A new antagonist for CCR4 attenuates allergic lung inflammation in a mouse model of asthma” (Scientific Reports, 2017)
Read-outs that look alike come from different tables or passages of the source.

Key:
CCR7 = biological target: T1, CCR7 (Homo sapiens, UniProt P32248); assay: Chemotaxis inhibition assay for receptor specificity, HEK293-CCR7; format: cell-based; conditions: 0.2, 1, 5, 25 μM, 30 min pretreatment
T1 construct: expressed in transfected cells; host or cells: HEK293, pcDB-CCR7 plasmid made in the authors' laboratory
T1 sequence (P32248 25-378): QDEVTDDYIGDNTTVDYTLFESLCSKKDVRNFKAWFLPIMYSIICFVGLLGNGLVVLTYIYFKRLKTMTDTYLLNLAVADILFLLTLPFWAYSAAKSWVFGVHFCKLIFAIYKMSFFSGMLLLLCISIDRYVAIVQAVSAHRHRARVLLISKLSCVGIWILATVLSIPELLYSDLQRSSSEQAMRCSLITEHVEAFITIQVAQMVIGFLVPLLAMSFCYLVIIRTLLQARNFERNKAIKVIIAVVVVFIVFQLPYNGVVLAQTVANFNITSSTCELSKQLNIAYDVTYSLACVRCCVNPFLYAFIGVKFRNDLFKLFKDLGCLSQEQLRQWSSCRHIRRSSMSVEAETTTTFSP
Description: HEK293 cells were transfected with different chemokine receptors. The corresponding chemokines of different receptors were placed in the lower chambers. The transfected cells were pretreated with different concentrations of Compound 8a or 1‰ DMSO for 30 min at a density of 1 × 10^6 cells/ml and added to the upper chambers, the final concentration of the compound is: 0.2 μM, 1 μM, 5 μM, and 25 μM, respectively.

[1] = test system: OVA-induced asthmatic mice; assay: Airway hyperresponsiveness to aerosolized methacholine in OVA-induced asthmatic mice; format: in vivo, BALB/c mice; conditions: days 24-26, 24 h after final OVA challenge
Description: Male BALB/c 6 week old mice were purchased from the Experimental Animal Center of Zhejiang University. All mice were raised in a specific pathogen-free animal facility. All animal experiments were carried out according to the guidelines for the care and use of laboratory animals and were approved by the ethics committee of Zhejiang University and Peking University, China.
Mice were sensitized and challenged with chicken egg OVA (sigma-Aldrich, St Louis, MO, USA) as described in details previously. Briefly, after sensitized by intraperitoneal injection of 100 μl (80 μg) OVA in 100 μl alum (Pierce, Rockford, IL, USA) on days 0 and 14, mice were exposure to 1% OVA aerosols for 40 min on days 24–26. Control mice were injected intraperitoneally with saline and exposed to saline aerosols.
Compound 8a was dissolved in saline with DMSO (0.5%). Half an hour before each OVA challenge, the groups of mice treated with various doses of compound 8a (0.2, 1, 5 mg) inhaled aerosolized compound 8a for 45 min on days 24–26. Compound 8a aerosols were produced by using a Plexiglas chamber and ultrasonic nebulizer. While the budesonide (BUD) group were administered with 5 mg budesonide, and the vehicle group were treated with compound-dissolved vehicle. The Saline was treated as the control.
Twenty-four hours after the last challenge, mice were anesthetized and tracheotomized with a cannula, then ventilated at a fixed breathing rate. Once being stabilized, mice were challenged via the airways with saline or increasing concentrations of Mch (1, 2, 4, 8, 16 mg/ml) by nebulization. Airway resistance was measured by FinePointe Series RC Sites (Buxco Research System). Changes in airway resistance were calculated for each Mch concentration.

CXCR4 = biological target: T2, CXCR4 (Homo sapiens, UniProt P61073); assay: Chemotaxis assay for receptor specificity, HEK293-CXCR4; format: cell-based; conditions: compound as chemoattractant in lower chamber, 0.2, 1, 5, 25 μM
T2 construct: expressed in transfected cells; host or cells: HEK293; plasmid from Chinese National Human Genome Center
Description: (§1) HEK293 cells were transfected with different chemokine receptors. Compound 8a with DMSO was diluted to 0.2 mM, 1 mM, 5 mM and 25 mM, and then we used RPMI 1640 medium containing 0.1% BSA for dilution. The final concentration is: 0.2 μM, 1 μM, 5 μM and 25 μM. DMSO was also diluted 1000-fold with 0.1% BSA RPMI 1640 medium. Chemokines was also diluted to an appropriate concentration. The dilutions of Compound 8a, 1‰ DMSO, the corresponding chemokines of different receptors and 0.1% BSA RPMI 1640 medium were placed in the lower chambers (27.5 μl/well). The transfected HEK293 cells were resuspended in the same medium at a density of 1 × 10^6 cells/ml and added to the upper chambers (55 μl/well).

CCR3 = biological target: T3, CCR3 (Homo sapiens, UniProt P51677); assay: Chemotaxis assay for receptor specificity, HEK293-CCR3; format: cell-based; conditions: compound as chemoattractant in lower chamber, 0.2, 1, 5, 25 μM
T3 sequence (P51677 1-355): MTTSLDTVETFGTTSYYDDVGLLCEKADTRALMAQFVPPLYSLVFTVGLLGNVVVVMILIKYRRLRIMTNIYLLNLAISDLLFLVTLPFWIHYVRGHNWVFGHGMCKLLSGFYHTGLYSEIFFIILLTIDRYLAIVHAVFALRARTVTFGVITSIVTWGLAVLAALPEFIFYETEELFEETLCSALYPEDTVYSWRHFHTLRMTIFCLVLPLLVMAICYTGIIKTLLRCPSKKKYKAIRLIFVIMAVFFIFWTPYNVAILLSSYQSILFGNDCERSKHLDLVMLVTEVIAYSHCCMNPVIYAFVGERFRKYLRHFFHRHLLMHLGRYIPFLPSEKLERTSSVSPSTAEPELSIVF
Description: as §1

CCR4 = biological target: T4, CCR4 (Homo sapiens, UniProt P51679); assay: Radio ligand competition binding assay on CCR4 cell membrane extract; conditions: HEK293 CCR4 cell membrane extract, 4 °C, 24 h
T4 construct: expressed in transfected cells; cell membrane extract
T4 sequence (P51679 1-360): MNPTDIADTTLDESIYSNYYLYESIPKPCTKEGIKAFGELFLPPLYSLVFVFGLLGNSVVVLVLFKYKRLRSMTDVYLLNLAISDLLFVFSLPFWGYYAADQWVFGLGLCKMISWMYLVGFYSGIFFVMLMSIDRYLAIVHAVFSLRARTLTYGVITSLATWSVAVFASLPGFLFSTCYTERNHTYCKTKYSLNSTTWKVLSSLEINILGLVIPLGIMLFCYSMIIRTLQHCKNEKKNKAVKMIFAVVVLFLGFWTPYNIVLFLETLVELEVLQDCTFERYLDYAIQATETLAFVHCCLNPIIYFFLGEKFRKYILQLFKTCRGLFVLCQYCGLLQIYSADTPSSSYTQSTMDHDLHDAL
Description: A HEK293 cell line stably expressing CCR4-enhanced green fluorescent protein was established. CCL22, CCL17 and C27 were labeled with [^125I]. For competition binding assays, equivalent quantities of cell membrane extract and [^125I]-CCL22, [^125I]-CCL17 and [^125I]-C27 were incubated with varying quantities of unlabeled compound 8a, compound 6b and compound 22. All reactions were incubated at 4 °C for 24 h. After the binding step, 25% polyethylene glycol (6000–8000) and 0.5% human g-globulin were added, and the mixture was incubated at room temperature for 15 min. Binding complexes were obtained by centrifuging the mixture at 3500 rpm for 20 min at 4 °C, and radioactivity was evaluated. Results were corrected for “blank” background radiation, defined as the radioactivity precipitated by polyethylene glycol–g-globulin from the same amount of radioactive ligand in binding buffer in the absence of cells.

T2 sequence (P61073 1-356 isoform P61073-2): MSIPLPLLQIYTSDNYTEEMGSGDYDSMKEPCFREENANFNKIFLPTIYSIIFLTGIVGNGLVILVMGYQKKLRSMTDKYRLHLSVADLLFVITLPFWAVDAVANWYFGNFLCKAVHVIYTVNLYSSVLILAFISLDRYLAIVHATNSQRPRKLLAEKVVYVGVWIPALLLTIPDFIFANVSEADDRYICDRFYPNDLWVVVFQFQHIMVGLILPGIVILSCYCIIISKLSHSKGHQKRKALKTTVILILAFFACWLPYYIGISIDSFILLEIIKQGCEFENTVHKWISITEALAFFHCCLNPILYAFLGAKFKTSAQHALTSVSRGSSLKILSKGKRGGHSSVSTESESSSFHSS

O=C(C1CCCCN1)N1CCN(c2nc(Cl)cc(NCc3ccc(Cl)cc3Cl)n2)CC1 (stereo not drawn) [compound 8a, {4-[4-Chloro-6-(2,4-dichloro-benzylamino)-pyrimidin-2-yl]-piperazin-1-yl}-piperidin-2-yl-methanone]
inhibition of chemotaxis of HEK293-CCR7 to its ligand (CCR7): few influence
AHR to methacholine compared with asthmatic mice treated with vehicle ([1]; 0.2 mg inhaled aerosol): significantly lower
AHR to methacholine compared with asthmatic mice treated with vehicle ([1]; 1 mg inhaled aerosol): significantly lower
AHR to methacholine compared with asthmatic mice treated with vehicle ([1]; 5 mg inhaled aerosol): significantly lower
chemotaxis effect of the compound on HEK293-CXCR4 (CXCR4): didn’t exert chemotaxis effects
chemotaxis effect of the compound on HEK293-CCR3 (CCR3): didn’t exert chemotaxis effects
IC50 (CCR4; [125I]-C27, read-out: IC50, competitive binding with C27 to CCR4): 62 nM
IC50 (CCR4; [125I]-CCL17, read-out: IC50, competitive binding with CCL17 to CCR4): 151 nM
IC50 (CCR4; [125I]-CCL22, read-out: IC50, competitive binding with CCL22 to CCR4): 272 nM
